# Results as given in paper PMC5103216, “Novel Agonist Bioisosteres and Common Structure-Activity Relationships for The Orphan G Protein-Coupled Receptor GPR139” (Scientific Reports, 2016).
# Molecular target: T1, M1 receptor (Homo sapiens, UniProt P11229)
# T1 construct: host or cells: CHO-k1
# T1 sequence (P11229 1-460): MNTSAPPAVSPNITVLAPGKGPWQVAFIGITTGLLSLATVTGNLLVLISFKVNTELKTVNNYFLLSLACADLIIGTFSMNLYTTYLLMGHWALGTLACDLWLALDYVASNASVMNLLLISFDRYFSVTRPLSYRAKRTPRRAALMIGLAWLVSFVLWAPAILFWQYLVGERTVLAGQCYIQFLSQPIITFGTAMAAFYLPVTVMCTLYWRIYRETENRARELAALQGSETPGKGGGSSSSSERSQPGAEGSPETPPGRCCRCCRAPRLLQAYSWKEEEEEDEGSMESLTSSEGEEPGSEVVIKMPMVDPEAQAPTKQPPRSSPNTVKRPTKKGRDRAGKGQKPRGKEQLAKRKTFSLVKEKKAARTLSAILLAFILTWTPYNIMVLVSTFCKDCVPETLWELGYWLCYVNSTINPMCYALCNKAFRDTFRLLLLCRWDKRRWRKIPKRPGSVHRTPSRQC
# Assay: cAMP dynamic 2 assay measuring Gs activation in CHO-M1 (control)
# Type: cell-based
# Details: not given
# Procedure: (§1) The cAMP assay was performed as described in the work by Thomsen et al.[28] with few modifications. Breifly, CHO-139 and CHO-M1 was detached and resuspended to a concentration of 1 million cells/mL. 5 μL 2x concentrated compound (for Gs: +100 μM IBMX and for Gi: +100 μM IBMX +10 μM forskolin (Fsk)) and 5 μL cell suspension (5,000 cells/well) was mixed. The plate was sealed and incubated at room temperature for 30 min. Next, 10 μL detection reagents (lysis buffer containing 2.5% Eu^3+-anti-cAMP antibody and 2.5% cAMP-d2) was added and the plate was incubated for 1 hour at room temperature. The plate was read on an Envision (PerkinElmer, Waltham, MA, USA). The TR-FRET 665 nm/615 nm ratio, which is inversely proportional with the cAMP production, was used to determination the concentration of the cAMP response. […]
# (§2) Supplementary Figure 1. cAMP dynamic 2 assay measuring Gs activation. 5,000 cells/well of CHO-139 (pink bars) or CHO-M1 (blue bars) cells are
# (§3) incubated with the indicated compounds for 30 min at room temperature in the presence of 50 µM IBMX. 5 µM and 10 µM forskolin (Fsk) serves as positive
# (§4) controls. The responses are one representative out of at two independent experiments performed in triplicates. Data points are means ± SD. […]
# (§5) Data points are means ± SD.
row,SMILES,Gs response (cAMP)
1,O=C(CN1CCCc2ccccc21)NNC(=O)c1ccc2c(c1)OCO2 [DL22],None of the tested compounds induced Gs response
2,O=C(CNC(=O)c1ccc2c(c1)OCO2)NC1CCSc2ccc(F)cc21 (stereo not drawn) [DL130],None of the tested compounds induced Gs response
3,O=C(NCC(=O)N1CCCC1c1ccccc1)c1ccc2c(c1)OCO2 (stereo not drawn) [DL132],None of the tested compounds induced Gs response
4,COc1cc(OC)cc(C(=O)NNC(=O)C2CCCc3ccccc32)c1 (stereo not drawn) [DL24],None of the tested compounds induced Gs response
5,O=C(Cc1cccc2ccccc12)NNC(=O)c1ccc2c(c1)OCO2 [DL126],None of the tested compounds induced Gs response
6,CCn1c(C)nc2cc(C(=O)NNC(=O)Cc3cccc4ccccc34)ccc21 [DL43],None of the tested compounds induced Gs response

# Molecular target: T2, GPR139 (Homo sapiens, UniProt Q6DWJ6)
# T2 sequence (Q6DWJ6 1-353): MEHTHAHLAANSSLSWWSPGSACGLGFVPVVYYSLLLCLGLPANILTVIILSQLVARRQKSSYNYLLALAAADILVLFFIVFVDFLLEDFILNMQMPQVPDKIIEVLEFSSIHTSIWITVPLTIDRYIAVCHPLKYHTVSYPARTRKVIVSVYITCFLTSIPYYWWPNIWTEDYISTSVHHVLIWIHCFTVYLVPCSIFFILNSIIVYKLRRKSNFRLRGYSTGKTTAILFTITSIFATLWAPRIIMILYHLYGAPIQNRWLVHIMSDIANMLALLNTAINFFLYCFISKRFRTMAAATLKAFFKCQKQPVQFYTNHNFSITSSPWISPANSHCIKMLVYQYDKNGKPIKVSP
# Assay: IP-One HTRF assay measuring Gq activation in CHO-139
# Type: cell-based
# Details: IP-One HTRF assay, CHO-139, 20 mM LiCl
# Procedure: Figure 3 IP-One HTRF® assay measuring Gq activation. Concentration-response curves of 1a, 7c (racemic), L-Trp, L-Phe, DL43, DL126, DL24, DL22, DL132 and DL130 on (A) CHO-139 and (B) CHO-M1 in the IP-One assay (final conc of LiCl = 20 mM). The dotted line represent the [IP1] response from (A) 10 μM 1a and (B) 1 μM carbachol, which is an agonist for the muscarinic acethylcholine receptor M1 that activates the Gq coupled pathway. The graphs are means ± SEM based on three independent experiments performed in triplicates.
# The IP-One assay was performed as described in the work by Thomsen et al.[28], with few modifications. Breifly, CHO-139 and CHO-M1 were detached and re-suspended to a concentration of 10 million cells/mL. 5 μL 2x concentrated compound (+40 mM LiCl) and 5 μL cell suspension (50,000 cells/well) was mixed. The plate was sealed and incubated at 37 °C for 1 hour. Next, 10 μL detection reagents (lysis buffer containing 2.5% Eu^3+-anti-IP1 antibody and 2.5% IP1-d2) was added and the plate was incubated for 1 hour at room temperature. The plate was read on an Envision (PerkinElmer, Waltham, MA, USA). The time resolved-fluorescence resonance energy transfer (TR-FRET) 665 nm/615 nm ratio, which is inversely proportional to the inositol monophosphate (IP1) accumulation, was used to determine the concentration of the IP1 response.
row,EC50 [µM],SMILES
1,4.18,O=C(CN1CCCc2ccccc21)NNC(=O)c1ccc2c(c1)OCO2 [DL22]
2,4.98,O=C(CNC(=O)c1ccc2c(c1)OCO2)NC1CCSc2ccc(F)cc21 (stereo not drawn) [DL130]
3,4.16,O=C(NCC(=O)N1CCCC1c1ccccc1)c1ccc2c(c1)OCO2 (stereo not drawn) [DL132]
4,0.75,COc1cc(OC)cc(C(=O)NNC(=O)C2CCCc3ccccc32)c1 (stereo not drawn) [DL24]
5,5.62,O=C(Cc1cccc2ccccc12)NNC(=O)c1ccc2c(c1)OCO2 [DL126]

row,SMILES,EC50 [µM]
1,CCn1c(C)nc2cc(C(=O)NNC(=O)Cc3cccc4ccccc34)ccc21 [DL43],9.57

# Molecular target: T2, GPR139
# Assay: cAMP dynamic 2 assay measuring Gs activation in CHO-139
# Type: cell-based
# Details: not given
# Procedure: as §1, §2, §3, §4, §5
row,SMILES,Gs response (cAMP)
1,O=C(CN1CCCc2ccccc21)NNC(=O)c1ccc2c(c1)OCO2 [DL22],None of the tested compounds induced Gs response
2,O=C(CNC(=O)c1ccc2c(c1)OCO2)NC1CCSc2ccc(F)cc21 (stereo not drawn) [DL130],None of the tested compounds induced Gs response
3,O=C(NCC(=O)N1CCCC1c1ccccc1)c1ccc2c(c1)OCO2 (stereo not drawn) [DL132],None of the tested compounds induced Gs response
4,COc1cc(OC)cc(C(=O)NNC(=O)C2CCCc3ccccc32)c1 (stereo not drawn) [DL24],None of the tested compounds induced Gs response
5,O=C(Cc1cccc2ccccc12)NNC(=O)c1ccc2c(c1)OCO2 [DL126],None of the tested compounds induced Gs response
6,CCn1c(C)nc2cc(C(=O)NNC(=O)Cc3cccc4ccccc34)ccc21 [DL43],None of the tested compounds induced Gs response
